In ChEMBL document CHEMBL3431459, “Roche carnitine palmitoyltransferase modulator screening data (supplementary data associated with the publication CHEMBL2216752)”:
≈ marks a conversion by molar mass, not a printed value.

Columns and labels:
[1] = SUPPLEMENTARY: Lyophilisation Solubility Assay (LYSA); format: physicochemical; details: read-out: Kinetic_solubility
[2] = molecular target: T1, Carnitine O-palmitoyltransferase 1, liver isoform (Homo sapiens, UniProt P50416); test: (§1) SUPPLEMENTARY: Inhibition of Carnitine palmitoyltransferase 1, liver isoform
T1 sequence (P50416 whole entry): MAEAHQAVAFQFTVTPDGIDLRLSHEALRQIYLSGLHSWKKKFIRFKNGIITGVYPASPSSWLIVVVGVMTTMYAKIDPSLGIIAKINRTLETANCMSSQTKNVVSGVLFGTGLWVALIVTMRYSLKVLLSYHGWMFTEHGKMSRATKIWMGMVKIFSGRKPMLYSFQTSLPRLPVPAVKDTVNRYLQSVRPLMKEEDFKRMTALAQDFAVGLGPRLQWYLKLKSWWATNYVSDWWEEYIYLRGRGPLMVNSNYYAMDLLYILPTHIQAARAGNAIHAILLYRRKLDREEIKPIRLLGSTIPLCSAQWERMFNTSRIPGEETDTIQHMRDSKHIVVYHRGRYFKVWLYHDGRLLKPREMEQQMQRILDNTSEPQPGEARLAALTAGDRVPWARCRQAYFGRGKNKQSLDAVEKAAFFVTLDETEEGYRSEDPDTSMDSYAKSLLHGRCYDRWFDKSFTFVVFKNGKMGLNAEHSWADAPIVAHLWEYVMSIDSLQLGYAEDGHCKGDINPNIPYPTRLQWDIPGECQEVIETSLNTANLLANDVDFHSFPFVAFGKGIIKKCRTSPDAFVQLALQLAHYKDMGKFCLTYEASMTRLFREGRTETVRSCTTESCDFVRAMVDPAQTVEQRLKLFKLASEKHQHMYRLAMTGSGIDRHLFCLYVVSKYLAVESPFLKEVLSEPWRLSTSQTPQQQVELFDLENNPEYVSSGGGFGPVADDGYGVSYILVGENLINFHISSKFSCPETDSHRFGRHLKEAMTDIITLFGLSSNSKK

[3] = molecular target: T2, Carnitine O-palmitoyltransferase 1, liver isoform (Rattus norvegicus, UniProt P32198); test: as §1
T2 sequence (P32198 whole entry): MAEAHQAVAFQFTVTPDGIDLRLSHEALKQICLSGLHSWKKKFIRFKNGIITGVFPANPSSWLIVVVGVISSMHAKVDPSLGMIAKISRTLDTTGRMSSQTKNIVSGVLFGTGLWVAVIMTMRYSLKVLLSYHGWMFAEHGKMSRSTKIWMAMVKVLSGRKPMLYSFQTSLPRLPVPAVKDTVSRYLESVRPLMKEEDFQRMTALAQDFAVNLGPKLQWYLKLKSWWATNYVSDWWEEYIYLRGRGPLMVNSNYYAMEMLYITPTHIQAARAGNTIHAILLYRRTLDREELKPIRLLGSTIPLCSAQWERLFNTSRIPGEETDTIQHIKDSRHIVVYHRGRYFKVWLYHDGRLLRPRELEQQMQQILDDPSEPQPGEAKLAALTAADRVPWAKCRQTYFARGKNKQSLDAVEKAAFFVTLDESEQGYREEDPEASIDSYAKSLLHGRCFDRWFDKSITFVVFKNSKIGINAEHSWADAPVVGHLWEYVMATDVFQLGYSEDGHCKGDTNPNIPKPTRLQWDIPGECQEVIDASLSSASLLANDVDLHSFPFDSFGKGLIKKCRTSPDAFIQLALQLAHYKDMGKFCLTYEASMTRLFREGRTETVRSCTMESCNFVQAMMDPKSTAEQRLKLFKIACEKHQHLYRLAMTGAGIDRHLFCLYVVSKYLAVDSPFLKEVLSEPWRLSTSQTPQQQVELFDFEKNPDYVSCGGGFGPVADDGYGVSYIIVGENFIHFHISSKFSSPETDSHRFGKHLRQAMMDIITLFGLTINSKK

[4] = molecular target: T3, Carnitine O-palmitoyltransferase 1, muscle isoform (Homo sapiens, UniProt Q92523); test: SUPPLEMENTARY: Inhibition of Carnitine palmitoyltransferase 1, muscle isoform; design: species or system Muscle tissue
T3 sequence (Q92523 whole entry): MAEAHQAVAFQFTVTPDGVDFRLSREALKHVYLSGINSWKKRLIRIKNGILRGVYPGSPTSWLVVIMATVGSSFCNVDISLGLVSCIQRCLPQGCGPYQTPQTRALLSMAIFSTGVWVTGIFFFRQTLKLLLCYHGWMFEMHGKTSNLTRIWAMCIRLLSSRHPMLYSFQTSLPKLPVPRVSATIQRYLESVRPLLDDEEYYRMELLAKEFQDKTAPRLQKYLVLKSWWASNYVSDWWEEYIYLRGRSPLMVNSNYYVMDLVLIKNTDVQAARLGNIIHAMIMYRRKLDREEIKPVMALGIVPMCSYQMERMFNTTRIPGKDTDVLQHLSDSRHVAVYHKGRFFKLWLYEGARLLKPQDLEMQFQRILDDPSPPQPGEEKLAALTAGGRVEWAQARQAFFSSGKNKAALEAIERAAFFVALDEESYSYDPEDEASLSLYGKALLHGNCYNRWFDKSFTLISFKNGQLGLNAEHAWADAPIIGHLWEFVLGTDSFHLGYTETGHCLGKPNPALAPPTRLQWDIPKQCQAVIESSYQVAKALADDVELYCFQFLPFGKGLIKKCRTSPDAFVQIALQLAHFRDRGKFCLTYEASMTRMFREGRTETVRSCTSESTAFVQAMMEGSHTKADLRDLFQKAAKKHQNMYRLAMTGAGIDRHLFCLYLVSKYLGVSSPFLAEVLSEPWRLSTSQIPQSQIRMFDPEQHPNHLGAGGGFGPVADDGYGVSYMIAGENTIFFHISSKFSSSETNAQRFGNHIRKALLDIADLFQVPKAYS

[5] = SUPPLEMENTARY: Lipophilicity (log D) Determination by high-throughput shake-flask; format: physicochemical; details: octanol/water
[6] = SUPPLEMENTARY: PAMPA permeability assay; format: physicochemical; details: read-out: Permeability
[7] = molecular target: T4, Carnitine O-palmitoyltransferase 2, mitochondrial (Rattus norvegicus, UniProt P18886); test: (§2) SUPPLEMENTARY: Inhibition of Carnitine palmitoyltransferase 2
T4 sequence (P18886 whole entry): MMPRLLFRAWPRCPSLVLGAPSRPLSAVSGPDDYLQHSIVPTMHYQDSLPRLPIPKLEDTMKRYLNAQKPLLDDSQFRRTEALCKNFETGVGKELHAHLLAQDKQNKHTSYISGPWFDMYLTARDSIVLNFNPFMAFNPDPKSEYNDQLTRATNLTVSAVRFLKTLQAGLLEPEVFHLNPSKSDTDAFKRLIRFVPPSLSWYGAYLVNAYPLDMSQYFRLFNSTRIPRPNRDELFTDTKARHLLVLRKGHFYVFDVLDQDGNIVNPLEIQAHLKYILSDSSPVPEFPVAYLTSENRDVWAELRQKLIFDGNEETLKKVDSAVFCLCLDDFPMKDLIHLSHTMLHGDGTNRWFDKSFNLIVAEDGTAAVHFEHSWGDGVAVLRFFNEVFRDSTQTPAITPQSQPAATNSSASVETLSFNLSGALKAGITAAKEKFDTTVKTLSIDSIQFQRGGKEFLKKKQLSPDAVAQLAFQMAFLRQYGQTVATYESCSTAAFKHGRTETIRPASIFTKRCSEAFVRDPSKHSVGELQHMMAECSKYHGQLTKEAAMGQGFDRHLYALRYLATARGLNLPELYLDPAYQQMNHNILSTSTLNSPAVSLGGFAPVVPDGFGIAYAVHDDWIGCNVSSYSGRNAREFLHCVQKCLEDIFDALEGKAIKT

[8] = molecular target: T5, Carnitine O-palmitoyltransferase 2, mitochondrial (Homo sapiens, UniProt P23786); test: as §2
T5 sequence (P23786 whole entry): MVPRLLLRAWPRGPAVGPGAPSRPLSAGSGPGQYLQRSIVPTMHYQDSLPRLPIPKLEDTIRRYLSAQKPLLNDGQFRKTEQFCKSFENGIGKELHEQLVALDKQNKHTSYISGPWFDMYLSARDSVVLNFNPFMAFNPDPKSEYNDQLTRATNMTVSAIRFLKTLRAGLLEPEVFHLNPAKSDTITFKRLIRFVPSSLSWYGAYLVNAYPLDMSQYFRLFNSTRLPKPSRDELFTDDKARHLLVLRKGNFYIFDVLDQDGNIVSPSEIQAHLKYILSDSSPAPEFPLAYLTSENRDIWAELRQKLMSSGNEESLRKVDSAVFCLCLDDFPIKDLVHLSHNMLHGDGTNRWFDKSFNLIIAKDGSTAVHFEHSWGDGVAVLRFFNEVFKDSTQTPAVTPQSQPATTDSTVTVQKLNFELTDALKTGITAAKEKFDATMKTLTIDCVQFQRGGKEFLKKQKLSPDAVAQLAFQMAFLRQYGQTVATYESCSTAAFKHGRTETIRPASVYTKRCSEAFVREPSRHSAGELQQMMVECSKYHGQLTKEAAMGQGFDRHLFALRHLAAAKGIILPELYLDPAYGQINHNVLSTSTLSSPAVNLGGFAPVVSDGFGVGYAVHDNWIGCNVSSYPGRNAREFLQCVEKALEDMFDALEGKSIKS

solubility kinetic [1]	IC50 [2]	IC50 [3]	IC50 [4]	logD [5]	Papp [6]	IC50 [7]	IC50 [8]	SMILES
46 µg/mL (≈ 106 µM)	63.5 nM	77.2 nM	> 100000 nM	2.72	4.71 ×10⁻⁶ cm/s	701 nM	473 nM	O=C([C@H]1CCCCN1C(=O)COc1ccccc1)N1Cc2ccc(C3CCOC3)cc2C1 (stereo partly specified)
58 µg/mL (≈ 112 µM)	112 nM	162 nM	6420 nM	0.07	0.23 ×10⁻⁶ cm/s	> 100000 nM	41600 nM	COc1ccc(Cl)cc1S(=O)(=O)N1CCNc2ccc(C(=O)Nc3ccc(C(=O)O)c(F)c3)cc21
50.5 µg/mL (≈ 126 µM)	191 nM	222 nM	> 100000 nM	2.83	3.5 ×10⁻⁶ cm/s	> 100000 nM	78400 nM	COC1CCC(c2nc([C@H]3CCCCN3C(=O)COc3ccccc3)no2)CC1 (stereo partly specified)
20 µg/mL (≈ 56.3 µM)	181 nM	106 nM	> 100000 nM	3.08	4.38 ×10⁻⁶ cm/s	> 100000 nM	> 100000 nM	O=C(COc1ccccc1)N1CCCC[C@@H]1c1noc(C2CCCC2)n1
41 µg/mL (≈ 111 µM)	116 nM	144 nM	> 100000 nM	2.6	9.63 ×10⁻⁶ cm/s	> 100000 nM	> 100000 nM	Cc1cc(-c2nc([C@H]3CCCCN3C(=O)COc3ccccc3)no2)on1
3 µg/mL (≈ 5.44 µM)	30 nM	12.6 nM	> 100000 nM	2.68	1.9 ×10⁻⁶ cm/s	> 100000 nM	> 100000 nM	COc1ccc(Cl)cc1S(=O)(=O)N1CCS(=O)(=O)c2ccc(C(=O)Nc3ccc(C(=O)O)cc3)cc21
70 µg/mL (≈ 150 µM)	229 nM	106 nM	> 100000 nM	2.01	8.31 ×10⁻⁶ cm/s	2010 nM	540 nM	O=C([C@H]1CCCCN1C(=O)COc1ccccc1)N1Cc2cc(F)c(N3CCOCC3)cc2C1
